Measurements taken from ChEMBL document CHEMBL1177858, “Cytotoxicity and topo I targeting activity of substituted 10--nitrogenous heterocyclic aromatic group derivatives of SN-38” (Eur J Med Chem, 2010).

Columns and labels:
[1] = target: T1, DNA topoisomerase 1 (Homo sapiens) (UniProt P11387); assay: Inhibition of topoisomerase 1-mediated supercoiled pBR322 relaxation assessed as change in band intensity by electrophoresis relative to camptothecin; further: test concentration or dose not given here
T1 sequence (whole entry): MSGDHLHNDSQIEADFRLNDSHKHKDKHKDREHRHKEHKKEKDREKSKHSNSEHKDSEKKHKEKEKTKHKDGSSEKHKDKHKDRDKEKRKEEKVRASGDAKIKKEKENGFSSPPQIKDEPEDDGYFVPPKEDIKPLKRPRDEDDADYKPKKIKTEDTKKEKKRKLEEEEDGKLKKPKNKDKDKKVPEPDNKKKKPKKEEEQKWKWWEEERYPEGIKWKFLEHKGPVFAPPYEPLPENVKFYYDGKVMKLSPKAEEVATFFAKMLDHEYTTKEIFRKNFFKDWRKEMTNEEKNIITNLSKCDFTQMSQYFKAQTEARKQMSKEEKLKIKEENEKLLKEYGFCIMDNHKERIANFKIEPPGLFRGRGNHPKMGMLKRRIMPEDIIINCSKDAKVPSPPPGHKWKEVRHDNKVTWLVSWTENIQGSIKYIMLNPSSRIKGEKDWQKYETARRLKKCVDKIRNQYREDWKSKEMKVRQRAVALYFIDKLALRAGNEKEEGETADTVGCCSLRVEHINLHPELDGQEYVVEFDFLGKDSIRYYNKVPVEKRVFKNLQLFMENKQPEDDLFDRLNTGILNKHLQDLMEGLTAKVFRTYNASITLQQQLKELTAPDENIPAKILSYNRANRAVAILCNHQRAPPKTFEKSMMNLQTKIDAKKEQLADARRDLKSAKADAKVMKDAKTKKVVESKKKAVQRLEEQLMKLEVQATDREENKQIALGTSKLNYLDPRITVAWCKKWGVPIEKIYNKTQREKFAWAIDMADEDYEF

[2] = system: MCF7; assay: Cytotoxicity against human MCF7 cells after 3 days by MTT assay; format: functional, cell-based
[3] = system: HCT-8; assay: Cytotoxicity against human HCT8 cells after 3 days by MTT assay; format: functional, cell-based
[4] = system: KB; assay: Cytotoxicity against human KB cells after 3 days by MTT assay; format: functional, cell-based

CC[C@@]1(O)C(=O)OCc2c1cc1n(c2=O)Cc2cc3cc(OCCCn4cncn4)ccc3nc2-1
fold change (FC) [1]: 0.62
IC50 [2]: 0.62 nM/ml
IC50 [3]: 0.9 nM/ml

CC[C@@]1(O)C(=O)OCc2c1cc1n(c2=O)Cc2cc3cc(OCC[n+]4cccc(C)c4)ccc3nc2-1.[Br-]
fold change (FC) [1]: 1.02
IC50 [4]: 1.3 nM/ml
IC50 [3]: 2.95 nM/ml

CC[C@@]1(O)C(=O)OCc2c1cc1n(c2=O)Cc2cc3cc(OCCC[n+]4ccccc4)ccc3nc2-1.[Br-]
fold change (FC) [1]: 0.7
IC50 [4]: 0.06 nM/ml
IC50 [3]: 0.07 nM/ml

CCc1c2c(nc3ccc(OCCCn4cnc5cncnc54)cc13)-c1cc3c(c(=O)n1C2)COC(=O)[C@]3(O)CC
fold change (FC) [1]: 0.72
IC50 [4]: 0.13 nM/ml
IC50 [2]: 1.23 nM/ml
IC50 [3]: 0.88 nM/ml

CCc1c2c(nc3ccc(OCC[n+]4cccc(C(C)=O)c4)cc13)-c1cc3c(c(=O)n1C2)COC(=O)[C@]3(O)CC.[Br-]
fold change (FC) [1]: 0.97
IC50 [4]: 0.09 nM/ml
IC50 [2]: 0.26 nM/ml
IC50 [3]: 0.09 nM/ml

CC[C@@]1(O)C(=O)OCc2c1cc1n(c2=O)Cc2cc3c(CN(C)C)c(O)ccc3nc2-1 [TOPOTECAN]
IC50 [4]: 0.07 nM/ml
IC50 [2]: 0.15 nM/ml
IC50 [3]: 0.07 nM/ml

CC[C@@]1(O)C(=O)OCc2c1cc1n(c2=O)Cc2cc3cc(OCC[n+]4cccc(F)c4)ccc3nc2-1.[Br-]
fold change (FC) [1]: 0.85
IC50 [4]: 0.68 nM/ml
IC50 [3]: 0.73 nM/ml

CCc1c2c(nc3ccc(OCCC[n+]4cccc(CO)c4)cc13)-c1cc3c(c(=O)n1C2)COC(=O)[C@]3(O)CC.[Br-]
fold change (FC) [1]: 0.95
IC50 [4]: 0.52 nM/ml
IC50 [2]: 1.38 nM/ml
IC50 [3]: 0.13 nM/ml

CC[C@@]1(O)C(=O)OCc2c1cc1n(c2=O)Cc2cc3cc(OCCCOc4cc(C(F)(F)F)ncn4)ccc3nc2-1
fold change (FC) [1]: 0.67
IC50 [2]: 0.18 nM/ml
IC50 [3]: 0.18 nM/ml

CCc1c2c(nc3ccc(OCCC[n+]4ccccc4)cc13)-c1cc3c(c(=O)n1C2)COC(=O)[C@]3(O)CC.[Br-]
fold change (FC) [1]: 0.96
IC50 [4]: 0.02 nM/ml
IC50 [2]: 0.14 nM/ml
IC50 [3]: 0.04 nM/ml

CCc1c2c(nc3ccc(OCC[n+]4ccccc4)cc13)-c1cc3c(c(=O)n1C2)COC(=O)[C@]3(O)CC.[Br-]
fold change (FC) [1]: 1.12
IC50 [4]: 0.08 nM/ml
IC50 [2]: 1.56 nM/ml
IC50 [3]: 0.52 nM/ml

CC[C@@]1(O)C(=O)OCc2c1cc1n(c2=O)Cc2cc3ccccc3nc2-1 [CAMPTOTHECIN]
fold change (FC) [1]: 1
IC50 [4]: < 0.013 nM/ml
IC50 [2]: 0.02 nM/ml
IC50 [3]: < 0.013 nM/ml

CCc1c2c(nc3ccc(OCC[n+]4cccc(C)c4)cc13)-c1cc3c(c(=O)n1C2)COC(=O)[C@]3(O)CC.[Br-]
fold change (FC) [1]: 1.07
IC50 [4]: 0.06 nM/ml
IC50 [2]: 5.04 nM/ml
IC50 [3]: 0.27 nM/ml

CC[C@@]1(O)C(=O)OCc2c1cc1n(c2=O)Cc2cc3cc(OCCCn4ccnc4)ccc3nc2-1
fold change (FC) [1]: 0.7
IC50 [2]: 0.38 nM/ml
IC50 [3]: 0.98 nM/ml

CC[C@@]1(O)C(=O)OCc2c1cc1n(c2=O)Cc2cc3cc(OCC[n+]4cccc(C(C)=O)c4)ccc3nc2-1.[Br-]
fold change (FC) [1]: 1.04
IC50 [4]: 6.28 nM/ml
IC50 [3]: 5.88 nM/ml

CCc1c2c(nc3ccc(OCCC[n+]4cccc(C)c4)cc13)-c1cc3c(c(=O)n1C2)COC(=O)[C@]3(O)CC.[Br-]
fold change (FC) [1]: 0.97
IC50 [4]: < 0.01 nM/ml
IC50 [2]: 0.11 nM/ml
IC50 [3]: < 0.01 nM/ml

CCc1c2c(nc3ccc(OCC[n+]4cccc(CO)c4)cc13)-c1cc3c(c(=O)n1C2)COC(=O)[C@]3(O)CC.[Br-]
fold change (FC) [1]: 1.02
IC50 [4]: 0.61 nM/ml
IC50 [2]: 1.74 nM/ml
IC50 [3]: 0.85 nM/ml

CCc1c2c(nc3ccc(OCC[n+]4cccc(F)c4)cc13)-c1cc3c(c(=O)n1C2)COC(=O)[C@]3(O)CC.[Br-]
fold change (FC) [1]: 1.07
IC50 [4]: 0.19 nM/ml
IC50 [2]: 0.25 nM/ml
IC50 [3]: 0.1 nM/ml

CCc1c2c(nc3ccc(OCCC[n+]4cccc(F)c4)cc13)-c1cc3c(c(=O)n1C2)COC(=O)[C@]3(O)CC.[Br-]
fold change (FC) [1]: 0.92
IC50 [4]: 1.9 nM/ml
IC50 [2]: 1.92 nM/ml
IC50 [3]: 0.43 nM/ml

CCc1c2c(nc3ccc(OCCC[n+]4cccc(C(C)=O)c4)cc13)-c1cc3c(c(=O)n1C2)COC(=O)[C@]3(O)CC.[Br-]
fold change (FC) [1]: 0.86
IC50 [4]: 4.82 nM/ml
IC50 [2]: 2.81 nM/ml
IC50 [3]: 2.24 nM/ml

CCc1c2c(nc3ccc(OCCCOc4cc(C(F)(F)F)ncn4)cc13)-c1cc3c(c(=O)n1C2)COC(=O)[C@]3(O)CC
fold change (FC) [1]: 0.59
IC50 [4]: 0.02 nM/ml
IC50 [2]: 0.08 nM/ml
IC50 [3]: 0.07 nM/ml

CC[C@@]1(O)C(=O)OCc2c1cc1n(c2=O)Cc2cc3cc(OCCCn4cnc5cncnc54)ccc3nc2-1
fold change (FC) [1]: 0.61
IC50 [2]: 2.09 nM/ml
IC50 [3]: 1.81 nM/ml

CCc1c2c(nc3ccc(OCCCn4ccnc4)cc13)-c1cc3c(c(=O)n1C2)COC(=O)[C@]3(O)CC
fold change (FC) [1]: 1.01
IC50 [4]: 0.32 nM/ml
IC50 [2]: 0.16 nM/ml
IC50 [3]: 0.06 nM/ml

CC[C@@]1(O)C(=O)OCc2c1cc1n(c2=O)Cc2cc3cc(OCC[n+]4cccc(CO)c4)ccc3nc2-1.[Br-]
fold change (FC) [1]: 0.7
IC50 [4]: 6.57 nM/ml
IC50 [3]: 7.49 nM/ml

CC[C@@]1(O)C(=O)OCc2c1cc1n(c2=O)Cc2cc3cc(OCC[n+]4ccccc4)ccc3nc2-1.[Br-]
fold change (FC) [1]: 1.03
IC50 [4]: 0.72 nM/ml
IC50 [3]: 0.97 nM/ml

CC[C@@]1(O)C(=O)OCc2c1cc1n(c2=O)Cc2cc3cc(OCCC[n+]4cccc(C)c4)ccc3nc2-1.[Br-]
fold change (FC) [1]: 0.72
IC50 [4]: < 0.01 nM/ml
IC50 [3]: < 0.01 nM/ml

CCc1c2c(nc3ccc(OCCCn4cncn4)cc13)-c1cc3c(c(=O)n1C2)COC(=O)[C@]3(O)CC
fold change (FC) [1]: 0.64
IC50 [4]: 0.04 nM/ml
IC50 [2]: 0.08 nM/ml
IC50 [3]: 0.04 nM/ml
